{"source": "patent US10149876B2", "about": "“Tripterygium wilfordii extracts to overcome chemotherapy resistance” (WESTERN UNIVERSITY OF HEALTH SCIENCES, priority 2012, dated 2018)", "test_system": "BT474 cells", "experiment": "SRB cell viability assay, Herceptin-sensitive BT474 cells", "format": "cell-based, human", "conditions": "for mean A at 565 nm: 72 h, background = 0.046", "procedure": "Cell culture of the above cell lines was performed as described in Example 2, except that 5,000, rather than 3,000 cells were plated per well for the K562, K562/Dox, BT474, SkBr3 lines.\nTable 17 also contains the serially-diluted concentrations of drugs that each cell line was tested against.", "note": "Where “and” joins values, the source holds several entries; their conditions need not be identical. Equal values may be shown once."}
{"smiles": "CS(=O)(=O)CCNCc1ccc(-c2ccc3ncnc(Nc4ccc(OCc5cccc(F)c5)c(Cl)c4)c3c2)o1", "note": "[lapatinib]", "values": [{"measurement": "viability at 0.001 µM", "setting": "Homo sapiens, BT-474, 72 h", "result": 100, "unit": "%"}, {"measurement": "viability at 0.05 µM", "setting": "Homo sapiens, BT-474, 72 h", "result": 65.7, "unit": "%"}, {"measurement": "viability at 0.167 µM", "setting": "Homo sapiens, BT-474, 72 h", "result": 52.1, "unit": "%"}, {"measurement": "viability at 0.5 µM", "setting": "Homo sapiens, BT-474, 72 h", "result": 26.9, "unit": "%"}, {"measurement": "viability at 1.67 µM", "setting": "Homo sapiens, BT-474, 72 h", "result": 21.1, "unit": "%"}, {"measurement": "viability at 5 µM", "setting": "Homo sapiens, BT-474, 72 h", "result": 14.1, "unit": "%"}, {"measurement": "viability at 16.7 µM", "setting": "Homo sapiens, BT-474, 72 h", "result": 8, "unit": "%"}, {"measurement": "viability at 50 µM", "setting": "Homo sapiens, BT-474, 72 h", "result": 2.3, "unit": "%"}, {"measurement": "IC50", "setting": "Homo sapiens, BT-474, read-out: IC50 of drug when cells treated with drug only", "result": "116 nM and 0.067 µg/mL"}, {"measurement": "mean A at 565 nm", "setting": "Lapatinib 0.001 μM", "result": 1.688}, {"measurement": "mean A at 565 nm", "setting": "Lapatinib 0.167 μM", "result": 0.880}, {"measurement": "mean A at 565 nm", "setting": "Lapatinib 0.5 μM", "result": 0.453}, {"measurement": "mean A at 565 nm", "setting": "Lapatinib 5 μM", "result": 0.238}, {"measurement": "mean A at 565 nm", "setting": "Lapatinib 16.7 μM", "result": 0.136}, {"measurement": "mean A at 565 nm", "setting": "Lapatinib 50 μM", "result": 0.038}]}
